How the values were obtained:
5α-reductase [1] = target: T1, 5α-reductase (Homo sapiens, UniProt P31213); assay: In vitro assay of 5α-reductase inhibition (particulate fraction from hyperplastic human prostates, [14C]testosterone); assay type: biochemical; settings: human prostate particulate fraction, 1 μM [14C]testosterone, pH 5.5, 37° C., 30 min
T1 construct: particulate fraction from homogenates of hyperplastic human prostates as the enzyme source; from tissue; host or cells: hyperplastic human prostate, particulate fraction (140,000 x g pellet of homogenate)
T1 sequence (P31213 1-254): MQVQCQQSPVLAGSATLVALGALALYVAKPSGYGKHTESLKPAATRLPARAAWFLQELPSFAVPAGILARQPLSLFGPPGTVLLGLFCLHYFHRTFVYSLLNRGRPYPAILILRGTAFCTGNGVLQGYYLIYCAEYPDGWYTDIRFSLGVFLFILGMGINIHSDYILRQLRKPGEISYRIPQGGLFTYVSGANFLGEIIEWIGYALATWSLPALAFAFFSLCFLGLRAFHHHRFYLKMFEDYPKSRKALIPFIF
Procedure: Inhibition of 5α-reductase was evaluated using the particulate fraction from homogenates of hyperplastic human prostates as the enzyme source. The particulate fraction was prepared centrifuging prostate homogenate at 140,000 x g. The resulting pellet, washed several times, was resuspended in buffer and stored at -80° C. in aliquots containing ≈10 mg protein/ml.
The assay for 5α-reductase was done in a final volume of 0.5 ml, in 40 mM TRIS-HCl buffer pH 5.5, containing I mM dithiothreitol, 5 mM NADPH, 1 μM [^14 C]testosterone, an aliquot of the enzyme preparation and various concentrations of the inhibitors. After 30 min incubation at 37° C. the reaction was terminated by addition of 2 ml cold diethyl ether and the organic phase was separated, evaporated under N2 and resuspended in ethyl acetate. Testosterone metabolites in this extract were separated in TLC on silica gel F 254 plates (Merck), using chloroform, acetone and n-hexane (2:1:2) as developing solvent system. Radioactivity on the plate was scanned and analysed from quantitative plots printed by a TLC-analyzer (Berthold). The fractional 5α-reduction of testosterone was calculated by relating the ^14 C-radioactivity in the 5α-reduced metabolites (5α-dihydrotesterone, […]) regions to the total radioactivity in the testosterone and 5α-reduced metabolites regions.

5α-reductase [2] = assay: In vivo inhibition of 5α-reductase (testosterone-induced prostate hypertrophy in castrated rats); set-up: species or system rat; settings: castrated testosterone-implanted rats, once daily for 7 days, ventral prostate weight
Procedure: The standard test for the antiandrogenic effect in rats was used. Prepuberal 22-day-old male rats were castrated via scrotal incision under light ether anaesthesia. On the seventh day after orchiectomy, androgen replacement was performed via subcutaneous implantation of 1 cm-long Silastic® tube (Dow-Corning, model No. 602-265) filled with a mixture of 25% testosterone and 75% cholesterol. […] Twenty four hours after the last dose the rats were sacrificed and the ventral prostate was removed and weighed. Control animals (testosterone controls) received the vehicle (0.5 ml/kg of 0.5% Methocel/0.4% Tween 80). One group of castrated rats was not implanted with testosterone (castrated controls).
The mean percentage of inhibition of the T-induced hypertrophic response of the prostate was calculated according to the following formula: […]
where WTC, WCC and WI are the mean prostate weight of testosterone control, castrated control and inhibitor treated group, respectively.

| IC50 (5α-reductase [1]) | SMILES | % Inhibition of prostate weight at 3 mg/kg/day p.o. (5α-reductase [2]) |
| --- | --- | --- |
| 16 nM | CC(NC(=O)[C@H]1CC[C@H]2[C@@H]3CC[C@H]4NC(=O)C=C[C@]4(C)[C@H]3CC[C@]12C)C(=O)C(F)(F)F (stereo partly drawn) [Compound 5, N-[1,1,1-trifluoro-2-oxobut-3-yl]3-oxo-4-aza-5α-androst-1-ene-17β-carboxamide] | 58% |
| 8 nM | CC(C)C(NC(=O)[C@H]1CC[C@H]2[C@@H]3CC[C@H]4NC(=O)C=C[C@]4(C)[C@H]3CC[C@]12C)C(=O)C(F)(F)F (stereo partly drawn) [Compound 7, N-[1,1,1-trifluoro-4-methyl-2-oxopent-3-yl]3-oxo-4-aza-5α-androst-1-ene-17β-carboxamide] | – |
| 14 nM | CC(C)(NC(=O)[C@H]1CC[C@H]2[C@@H]3CC[C@H]4NC(=O)C=C[C@]4(C)[C@H]3CC[C@]12C)C(=O)C(F)(F)F [Compound 22, N-[1,1,1-trifluoro-3-methyl-2-oxobut-3-yl]3-oxo-4-aza-5α-androst-1-ene-17β-carboxamide] | 50% |

— US5418238A, “17β-substituted 4-aza-5α-androstan-3-one derivatives” (Farmitalia Carlo Erba S.R.L., priority 1992, dated 1995)
